From paper PMC4857087, “A potential adjuvant chemotherapeutics, 18β-glycyrrhetinic acid, inhibits renal tubular epithelial cells apoptosis via enhancing BMP-7 epigenetically through targeting HDAC2” (Scientific Reports, 2016) come the findings set out here.

Each structure is given as a SMILES string.

In experiment [1] the target is HDAC2 (Homo sapiens, UniProt Q92769). Briefly: SPR (Biacore T200, HDAC2 immobilized on CM5 chip, […] Langmuir fit). The experiment is classed as binding. In general terms: In SPR one partner is held on a chip, and binding of the other changes the refractive index at the surface.
Chain of HDAC2 (Q92769 whole entry): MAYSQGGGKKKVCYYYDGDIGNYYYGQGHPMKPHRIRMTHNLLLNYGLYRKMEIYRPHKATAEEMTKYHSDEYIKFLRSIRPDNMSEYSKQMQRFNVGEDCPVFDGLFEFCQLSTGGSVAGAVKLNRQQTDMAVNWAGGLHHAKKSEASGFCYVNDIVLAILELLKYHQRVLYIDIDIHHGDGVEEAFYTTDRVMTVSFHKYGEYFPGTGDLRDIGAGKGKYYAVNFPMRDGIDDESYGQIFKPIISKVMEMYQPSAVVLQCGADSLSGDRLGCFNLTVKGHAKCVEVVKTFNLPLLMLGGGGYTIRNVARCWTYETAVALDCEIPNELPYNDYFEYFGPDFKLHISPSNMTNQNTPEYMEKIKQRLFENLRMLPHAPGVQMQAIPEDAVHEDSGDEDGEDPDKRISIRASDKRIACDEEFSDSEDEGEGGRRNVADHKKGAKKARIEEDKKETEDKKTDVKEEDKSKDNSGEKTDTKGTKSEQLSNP
Experiment [2] relates to HK2. Briefly: cells. Also noted: species or system mTEC; antiproliferative activity on renal tubular epithelial cells, 48 h. The settings on record: Homo sapiens, HK-2, 48 h. On the procedure: GA could be transformed into 18β-glycyrrhetinic acid (18βGA) via biotransformation. At first, compounds GA and 18βGA were evaluated for their antiproliferative activities against mTEC and HK2 cell lines. The cells were allowed to proliferate in the presence of tested material for 48 h, and the results were reported in terms of IC50 values (Supplementary Table S2). […] Thus we chose GA 0.05, 0.1, 0.2, 0.4, 0.8 mM and 18βGA 2.5, 5, 10, 20, 30 μM to further evaluate the roles on KIM-1. […] Thus, 18βGA was chosen to discuss the mechanisms in AKI induced by CP. Cisplatin (CP), glycyrrhizic acid ammonium salt (GA), 18β-glycyrrhetinic acid (18βGA), Dimethyl sulfoxide (DMSO), MTT (3-(4, 5-dimethylthiazol-2-yl)-2, 5-diphenyltetrazoliumbromide) and all other chemicals were obtained from Sigma-Aldrich (St. Louis, MO, USA). BMP-7, KIM-1, Bcl-2 and Bax antibodies were purchased from Santa Cruz (CA, USA). β-actin antibody and secondary antibodies for goat anti-rabbit IgG HRP and rabbit anti-goat IgG HRP were purchased from Bioworld Technology (Nanjing, China). Creatinine (Cr) and Blood Urea Nitrogen (BUN) assay kit were purchased from Siemens (NY, USA).

As for `CC1(C)[C@@H](O)CC[C@]2(C)[C@H]3C(=O)C=C4[C@@H]5C[C@@](C)(C(=O)O)CC[C@]5(C)CC[C@@]4(C)[C@]3(C)CC[C@@H]12` [18βGA, 18β-glycyrrhetinic acid], the dissociation constant Kd – broadly, the free concentration of one partner at which half of the binding sites on the other are occupied at equilibrium, for simple one-to-one binding – in experiment [1] stood at 0.613 µM. Further, it took 0.073 mM to reach half-maximal inhibition in experiment [2] (IC50).
